Holding throughout (format): cell-based, Escherichia coli
Test [1] has as its system HipA-arrested cells (MG1655/pHipA). Put plainly: β-Lactam susceptibility of HipA-arrested cells (optical density, lysis). The procedure: Biological triplicates of MG1655/pHipA cells were inoculated into 30 ml of MOPS-M9 medium and grown at 37° C. until an OD600 of 0.5 was reached. aTc was added to reach 50 ng/ml, and the cultures were split into two 12-ml subcultures. At 2.5 h later, carbenicillin (100 μg/ml) was added to one subculture and optical densities were measured. For comparison of the levels of β-lactam tolerance of WT and ΔrelA cultures expressing HipA, biological triplicates of the WT/pHipA and ΔrelA/pHipA strains were inoculated into 5 ml of MOPS-M9 medium and grown at 37° C. HipA expression was induced with 50 ng/ml aTc when the OD600 reached ˜0.3. Ampicillin was added to reach a final concentration of 100 μg/ml 1.5 h later, and optical densities were monitored.

Test [2] deals with persister cells of MG1655. The test can be described thus: Antibiotic resistance of naturally occurring persister cells isolated by ofloxacin treatment (CFU count). Conditions: chloramphenicol 30 μg/ml, ampicillin 100 μg/ml, 4 h at 37° C.; P=0.3, unpaired t test. How it is done:
Persister cells were prepared in triplicate by ofloxacin treatment of stationary-phase cultures based on a previously described protocol (32). Overnight cultures of MG1655 cells grown in LB medium for 20 h were treated with ofloxacin for 3 h at 37° C., after which cells were pelleted, washed with fresh LB medium, pelleted again, and resuspended in antibiotic-free LB medium. After resuspension, chloramphenicol (30 μg/ml) and ampicillin (100 μg/ml) were added singly or in combination, and cells were incubated at 37° C. with shaking for 4 h. Samples were removed, pelleted once, washed with LB medium, resuspended, and serially diluted. A 10-μl volume of the serial dilutions was spot plated on an LB agar plate, which was incubated at 37° C. overnight. Colonies were counted the following day.

For another test, the system named is MG1655/pHipA cells. The test can be described thus: Measurement of DNA and RNA concentrations in HipA-arrested cells. Conditions: 30 μg/ml chloramphenicol added 1 h after HipA induction. The procedure:
Cultures of MG1655/pHipA cells were inoculated into 40 ml of MOPS-M9 medium in 250-ml unbaffled Erlenmeyer flasks and incubated with shaking at 37° C. When the OD600 reached ˜0.3, aTc was added to reach 50 ng/ml. After 1 h of HipA induction, a sample was removed for DNA or RNA extraction, the cultures were split into two 15-ml cultures, and 30 μg/ml chloramphenicol was added to one of the cultures. For comparison of DNA and RNA synthesis results in WT and ΔrelA strains expressing HipA, biological triplicates of the WT/pHipA and ΔrelA/pHipA strains were grown in MOPS-M9 medium at 37° C. to an OD600 of 0.2 to 0.4, at which point HipA expression was induced by addition of aTc to 50 ng/ml. Samples were processed per a previously published protocol (27) using Picogreen (Invitrogen) for DNA quantification. RNA was quantified by measurement of fluorescence using the Quant-It assay (catalog no. Q33140; Invitrogen) following the manufacturer's instructions. Fluorescence was measured using a Spectromax M2 reader.

Test [3] relates to ppGpp concentration within HipA-arrested cells. The test can be described thus: ppGpp measurements performed with HPLC in HipA-arrested cells. Conditions: chloramphenicol treatment, within 15 min. The text has this:
ppGpp and nucleotides were extracted from cells grown on agar-supported nylon filters, following a protocol inspired by the rapid-quenching and metabolite extraction approach described in reference 25. We adopted this technique to avoid perturbing ppGpp levels with lengthy cell harvesting and extraction procedures, as the enzymes that generate and degrade ppGpp are known to respond rapidly to external conditions (26). Briefly, cells grown in liquid medium to an optical density at 600 nm (OD600) of ˜0.1 were transferred to nylon filters and adhered to solid agar plates containing our modified MOPS-M9 medium. […] Concentrations of ppGpp and GTP were measured using anion-exchange chromatography and a Partisil 5 Sax Rac II column (catalog no. 422-227; Hichrom Limited), with a silica Nova-Pak guard column (catalog no. WAT046845; Whatman) per a protocol described previously (26) and modified for brevity. […] The column temperature was maintained at 50° C., and absorbance was monitored at 254 nm. […]
Cultures of MG1655/pHipA cells were inoculated into 40 ml of MOPS-M9 medium in 250-ml unbaffled Erlenmeyer flasks and incubated with shaking at 37° C. […] Samples were processed per a previously published protocol (27) using Picogreen (Invitrogen) for DNA quantification. […] Fluorescence was measured using a Spectromax M2 reader.

SMILES strings stand for the structures.

With `CC1(C)S[C@@H]2[C@H](NC(=O)[C@H](N)c3ccccc3)C(=O)N2[C@H]1C(=O)O` [ampicillin], the “ampicillin resistance of ΔrelA strain expressing HipA” value in test [1] (ampicillin 100 μg/ml, ΔrelA/pHipA strain, FIG. 9D) is “did not confer ampicillin resistance”. Besides, the “reduction in CFU of isolated persisters” value in test [2] was 41%±13%.
As for `CC1(C)S[C@@H]2[C@H](NC(=O)C(C(=O)O)c3ccccc3)C(=O)N2[C@H]1C(=O)O` (stereo partly drawn) [carbenicillin], the “lysis of HipA-arrested WT cells” value in test [1] (carbenicillin 100 μg/ml, HipA induced with 50 ng/ml aTc, FIG. 9C) is listed as “did not induce lysis”.
For the compound `O=C(N[C@H](CO)[C@H](O)c1ccc([N+](=O)[O-])cc1)C(Cl)Cl` [chloramphenicol], in the test on MG1655/pHipA cells (FIG. 9A), the “inhibition of DNA synthesis in HipA-arrested cells” value is reported as “relieved inhibition”. Moreover, in the test on MG1655/pHipA cells (FIG. 9B), the “inhibition of RNA synthesis in HipA-arrested cells” value was “relieved inhibition”. In addition, the “decrease of ppGpp concentration within HipA-arrested cells” value in test [3] is recorded as 60% (±20%).

For the origin of these results see patent publication US9902964B2, “Growth arrested cells useful for producing compounds” (priority 2014, dated 2018).
